Results published in patent US7846955B2, “Salt” (AstraZeneca AB, priority 2007, dated 2010).
Counter-ions that a name gives are not always drawn.

Legend:
[1] = Gravimetric vapour sorption (GVS) water uptake; assay type: physicochemical; conditions: at 80% RH (±0.3%), 25° C.
Experimental: • XRPD—PANalytical CubiX PRO machine in Ø-Ø configuration over the scan range 2° to 40° 2Ø with 100-second exposure per 0.02° increment. The X-rays were generated by a copper long-fine focus tube operated at 45 kV and 40 mA. The wavelength of the copper X-rays was 1.5418 Å. The Data was collected on zero background holders on which ˜2 mg of the compound was placed. The holder was made from a single crystal of silicon, which had been cut along a non-diffracting plane and then polished on an optically flat finish. The X-rays incident upon this surface were negated by Bragg extinction. • DSC thermograms were measured using a TA Q1000 Differential Scanning Calorimeter, with aluminium pans and pierced lids. The sample weights varied between 0.5 to 5 mg. The procedure was carried out under a flow of nitrogen gas (50 ml/min) and the temperature studied from 25 to 300° C. at a constant rate of temperature increase of 10° C. per minute. • TGA thermograms were measured using a TA Q500 Thermogravimetric Analyser, with platinum pans. The sample weights varied between 1 and 5 mg. The procedure was carried out under a flow of nitrogen gas (60 ml/min) and the temperature studied from 25 to 200° C. at a constant rate of temperature increase of 10° C. per minute. • GVS profiles were measured using a Dynamic Vapour Sorption DVS-1 instrument. […]

[2] = Evaluation of deaggregation properties of micronised material (Fine Particle Fraction); assay type: physicochemical; conditions: across relative humidity 0-75% RH
From the text: ‘Salt Form A’ was Micronised in a 50 mm jet mill, with ejector pressure 5 bar and milling pressure 1.5-2 bar, giving (90% yield). Particle size of the micronised material as determined by Malvern Laser Diffraction with dry powder feeder was d(0.1) 0.77 μm: d(0.5), 1.45μ: d(0.9): 2.65 μm.

[3] = biological target: human muscarinic receptors (M3) (Homo sapiens, UniProt P20309); experiment: Muscarinic Receptor Radioligand Binding Assay (SPA, [3H]-NMS); conditions: human M3 membranes on SPA beads, 16 hours incubation, read-out: M3 binding pIC50 (converted)
Experimental: The inhibitory effects of compounds of the napadisylate salt were determined by a Muscarinic Receptor Radioligand Binding Assay. Radioligand binding studies were carried out in Scintillation Proximity Assay (SPA) format utilising [3H]-N-methyl scopolamine ([3H]-NMS) and cell membranes expressing the human muscarinic receptors (M2 or M3) which were coated onto SPA beads. Coated SPA beads were incubated in 96-well plates in HEPES buffer with [3H]-NMS and M3 antagonist at various concentrations for 16 hours. Radioligand binding was then counted using a Wallac Microbeta scintillation counter.

Sequence of human muscarinic receptors (M3) (P20309 whole entry): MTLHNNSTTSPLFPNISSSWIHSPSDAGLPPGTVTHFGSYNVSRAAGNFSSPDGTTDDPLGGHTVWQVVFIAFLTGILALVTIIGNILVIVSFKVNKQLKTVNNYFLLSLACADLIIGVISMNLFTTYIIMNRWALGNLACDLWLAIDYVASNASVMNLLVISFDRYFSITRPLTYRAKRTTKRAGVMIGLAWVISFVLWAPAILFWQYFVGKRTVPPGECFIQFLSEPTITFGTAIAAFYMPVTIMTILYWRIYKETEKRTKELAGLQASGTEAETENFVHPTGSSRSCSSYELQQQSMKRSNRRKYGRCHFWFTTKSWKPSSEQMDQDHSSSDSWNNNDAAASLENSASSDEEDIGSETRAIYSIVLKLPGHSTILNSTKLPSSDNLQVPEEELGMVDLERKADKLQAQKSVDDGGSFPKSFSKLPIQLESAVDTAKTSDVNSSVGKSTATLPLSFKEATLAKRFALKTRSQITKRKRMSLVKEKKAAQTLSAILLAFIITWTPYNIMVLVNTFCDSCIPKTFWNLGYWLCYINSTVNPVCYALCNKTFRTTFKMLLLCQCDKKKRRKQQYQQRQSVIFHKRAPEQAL

| GVS weight increase [1] | Fine Particle Fraction (FPF) [2] | IC50 [3] | Structure (SMILES) |
| --- | --- | --- | --- |
| less than 0.5 % w/w | > 60% |  | C[N+](C)(CCOCc1ccc(Cl)cc1)Cc1cnc([C@](O)(c2ccccc2)C2CCCCC2)o1 [Salt Form A, [2-(4-chloro-benzyloxy)-ethyl]-[2-((R)-cyclohexyl-hydroxy-phenyl-methyl)-oxazol-5-ylmethyl]-dimethyl-ammonium hemi-naphthalene-1,5-disulfonate] |
|  |  | 0.158 nM | C[N+](C)(CCOCc1ccc(Cl)cc1)Cc1cnc([C@](O)(c2ccccc2)C2CCCCC2)o1 [[2-(4-chloro-benzyloxy)-ethyl]-[2-((R)-cyclohexyl-hydroxy-phenyl-methyl)-oxazol-5-ylmethyl]-dimethyl-ammonium] |
